Bridge positions count the residues as written; N and C are the ends. DOTA‑PEG4 = alpha-(1,4,7,10-tetraazacyclododecan-1,4,7,10-tetraacetate)-4(ethylene glycol)
Tests used:
[1] = test system: HT1376 urothelial cancer cells; experiment: In vitro cell cytotoxicity assay of actinium-225 radioconjugates (CellTiter-Glo); assay type: cell-based; conditions: compound radiolabeled with 225Ac, 24 hours treatment, 4-5 days regrowth, cell viability
Method: Cytotoxicity to actinium-225 radioconjugates was assessed in HT1376 urothelial cancer cells. Cells were seeded in 96-well plates at densities of 250 to 1000 cells per well two days prior to treatment. On the day of treatment actinium-225 radioconjugates were diluted in culture medium to concentrations ranging from 0.0001 to 100 uCi/mL and treatment solutions were incubated with cells for 24 hours. At the end of the treatment period, the treatment solution was removed, and fresh culture medium was replenished for the regrowth period of the assay that lasted 4-5 days. At the end of the regrowth period the culture medium was removed and viability was assessed by CellTiter-Glo (Promega, Waltham MA) luminescent assay and the plates were read on a Perkin Elmer Enspire multimode plate reader. Data were normalized to treatment controls and plotted as non-linear sigmoidal dose response curves to determine the effective concentration for 50% reduction in cell viability.

[2] = Thermal stability at 75° C. in 0.9% saline by HPLC; assay type: physicochemical; conditions: 1 mg/mL, 0.9% Saline solution, 60 minutes, FIG. 7
Method: The thermal stability of an exemplary compound, C215, was analyzed at a concentration of 1 mg/mL at 75° C. in 0.9% Saline solution. A heating plate was set to 75° C. and the sample was heated for a period of one hour. The vial was shaken prior to collecting […] at 5, 10, 15, 30 and 60 minute time intervals. The % parent remaining was analyzed by HPLC using the following system and method: Analytical Agilent 1100 HPLC system using a 4.6×250 mm, 300 Angstrom, BEH300, […], Xbridge C18 column at […]. The solvent system consisted of A=Water+0.1% TFA, B=Acetonitrile+0.1% TFA. The gradient consisted of 5% to 70% B over 15 minutes, then the column was washed and equilibrated to initial conditions.

| Substance | EC50 (microcurie/milliliter) for Ac-225 radioconjugates [1] [microcurie/milliliter] | Thermal stability (% parent remaining) [2] |
| --- | --- | --- |
| C215 (CEYDEEFFTALKRLRGGDICYYIKKKFKKVPKLCIEEILDKLGC) [Compound C215] | 0.086 | remain stable |
| C214 ({DOTA‑PEG4}-CEYDEEFFTALKRLRGGDICYYIKKKFDYLPKLCIEEILDNLGC-NH2; disulfide 1-34, 20-44) [Compound C214] | 0.014 |  |
